The results in this text go back to publication PMC9878307, “Derivatives of 2-aminobenzimidazole potentiate ASIC open state with slow kinetics of activation and desensitization” (Frontiers in Physiology, 2023).

What all share (format): cell-based
For test [1], the target named is T1, ASIC2a (Rattus norvegicus, UniProt Q62962).
T1 construct: gene Asic2; rASIC2a homomer expressed in CHO cells
T1 sequence (Q62962 1-512): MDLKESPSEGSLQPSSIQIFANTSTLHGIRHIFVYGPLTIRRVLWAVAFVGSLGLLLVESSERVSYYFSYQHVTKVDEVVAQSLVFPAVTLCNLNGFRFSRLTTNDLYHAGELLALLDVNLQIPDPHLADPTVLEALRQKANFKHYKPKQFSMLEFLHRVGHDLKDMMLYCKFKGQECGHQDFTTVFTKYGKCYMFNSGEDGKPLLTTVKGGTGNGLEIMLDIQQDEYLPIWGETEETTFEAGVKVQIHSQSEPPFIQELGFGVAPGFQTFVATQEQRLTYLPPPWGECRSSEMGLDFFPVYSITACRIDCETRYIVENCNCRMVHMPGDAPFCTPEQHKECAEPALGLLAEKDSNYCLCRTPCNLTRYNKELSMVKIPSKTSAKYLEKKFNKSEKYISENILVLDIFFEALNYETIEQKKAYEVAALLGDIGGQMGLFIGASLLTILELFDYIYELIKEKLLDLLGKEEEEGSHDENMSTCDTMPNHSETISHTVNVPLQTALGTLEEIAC
As to the kind of experiment: whole-cell patch clamp, potentiation of acid-evoked peak current at pH […].

The target of another test is T2, ASIC1a (Rattus norvegicus, UniProt P55926).
T2 construct: gene Asic1; rASIC1a homomer expressed in CHO cells
T2 sequence (P55926 1-526): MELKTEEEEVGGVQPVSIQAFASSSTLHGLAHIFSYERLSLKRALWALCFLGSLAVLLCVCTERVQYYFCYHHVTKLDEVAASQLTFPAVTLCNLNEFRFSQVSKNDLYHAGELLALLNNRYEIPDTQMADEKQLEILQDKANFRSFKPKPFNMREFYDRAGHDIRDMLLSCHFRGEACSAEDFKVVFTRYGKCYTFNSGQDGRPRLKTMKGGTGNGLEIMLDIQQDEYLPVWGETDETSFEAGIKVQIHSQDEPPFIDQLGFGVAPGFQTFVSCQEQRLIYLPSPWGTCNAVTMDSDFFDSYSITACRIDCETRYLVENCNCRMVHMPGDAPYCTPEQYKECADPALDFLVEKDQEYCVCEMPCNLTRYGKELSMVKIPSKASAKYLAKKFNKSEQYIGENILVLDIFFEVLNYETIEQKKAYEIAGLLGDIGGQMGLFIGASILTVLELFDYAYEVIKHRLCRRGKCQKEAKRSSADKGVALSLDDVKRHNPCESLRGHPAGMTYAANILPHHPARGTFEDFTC
Put plainly: whole-cell patch clamp, slowed desensitization ([…] at […], […] at […]), amplitude unchanged. A general note: The patch-clamp technique gives a direct electrical read-out from membranes.

Test [2] addresses T1, ASIC2a. As to the kind of experiment: whole-cell patch clamp, […] inhibition of peak current at […], pH […]. Conditions: pH 5.
The next test deals with T3, ASIC3 (Rattus norvegicus, UniProt O35240).
T3 construct: rASIC3 expressed in CHO cells
T3 sequence (O35240 1-533): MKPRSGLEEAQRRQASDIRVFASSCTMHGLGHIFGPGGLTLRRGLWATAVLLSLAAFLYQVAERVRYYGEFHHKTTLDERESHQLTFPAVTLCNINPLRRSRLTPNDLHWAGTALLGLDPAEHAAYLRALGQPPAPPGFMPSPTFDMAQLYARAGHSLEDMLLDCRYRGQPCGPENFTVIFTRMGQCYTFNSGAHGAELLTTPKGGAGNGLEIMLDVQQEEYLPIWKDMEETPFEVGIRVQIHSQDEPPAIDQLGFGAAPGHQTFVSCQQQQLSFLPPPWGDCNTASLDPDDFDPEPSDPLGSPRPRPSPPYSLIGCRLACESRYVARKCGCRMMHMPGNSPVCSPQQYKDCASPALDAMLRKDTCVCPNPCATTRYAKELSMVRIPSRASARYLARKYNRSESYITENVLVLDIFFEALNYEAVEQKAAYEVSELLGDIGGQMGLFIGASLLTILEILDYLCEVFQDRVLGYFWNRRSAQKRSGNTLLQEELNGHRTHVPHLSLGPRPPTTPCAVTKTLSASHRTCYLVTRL
Put plainly: whole-cell patch clamp, […] inhibition of peak current at […].

In general, EC50 refers to the concentration giving half of the maximal effect. For orientation: inhibition means the drop in the measured response relative to a control, in per cent. Low readings indicate little suppression, high ones strong suppression.

For the molecule `Nc1n(CC(=O)c2ccc(F)cc2)c2ccccc2[n+]1CCN1CCOCC1` [Ru-1355], on ASIC2a [1], the EC50 came to 7.52 ± 0.33 µM. Also, the “fold slowing of desensitization” value on ASIC1a came out at 1.28 ± 0.15.

Take `N=C(N)c1ccc(/N=N/Nc2ccc(C(=N)N)cc2)cc1` [diminazene]: the inhibition at 70 µM at ASIC2a [2] was found to be 75 ± 12%; against ASIC3 it was 74 ± 8%.
